Measurements from ChEMBL document CHEMBL5465560, “Selectivity Literature for EUbOPEN Chemogenomic Library” (2024).

Columns and labels:
[1] = target: Casein kinase I isoform delta (Homo sapiens, UniProt P48730); details: at 10 µM
[2] = target: Phosphatidylinositol 4-phosphate 5-kinase type-1 gamma (Homo sapiens) (UniProt O60331); assay: Selectivity interaction (KinomeScan (DiscoverX)) EUB0000655a PIP5K1C; details: at 10 µM
[3] = target: Tyrosine-protein kinase BTK (Homo sapiens, UniProt Q06187); assay: Selectivity interaction (KinomeScan (DiscoverX)) EUB0000666a BTK; details: at 10 µM
Sequence of Tyrosine-protein kinase BTK (Q06187 whole entry): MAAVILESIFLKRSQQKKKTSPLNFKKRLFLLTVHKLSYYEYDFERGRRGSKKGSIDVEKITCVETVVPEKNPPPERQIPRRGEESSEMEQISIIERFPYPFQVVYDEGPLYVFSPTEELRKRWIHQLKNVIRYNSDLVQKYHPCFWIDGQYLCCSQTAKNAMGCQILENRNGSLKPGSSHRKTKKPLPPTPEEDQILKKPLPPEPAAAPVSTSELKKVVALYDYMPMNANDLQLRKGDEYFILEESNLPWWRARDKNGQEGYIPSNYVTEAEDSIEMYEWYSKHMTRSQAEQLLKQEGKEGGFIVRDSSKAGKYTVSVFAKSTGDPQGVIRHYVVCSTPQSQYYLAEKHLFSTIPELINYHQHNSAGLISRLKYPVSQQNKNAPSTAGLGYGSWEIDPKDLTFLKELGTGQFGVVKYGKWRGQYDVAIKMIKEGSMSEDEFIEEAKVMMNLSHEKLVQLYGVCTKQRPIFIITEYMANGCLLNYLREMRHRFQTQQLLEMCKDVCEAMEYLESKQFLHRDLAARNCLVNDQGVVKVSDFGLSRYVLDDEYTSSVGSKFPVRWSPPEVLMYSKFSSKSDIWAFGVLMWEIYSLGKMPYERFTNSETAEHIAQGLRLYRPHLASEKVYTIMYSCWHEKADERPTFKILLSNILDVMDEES

[4] = tested on: eIF-2-alpha kinase GCN2 (Homo sapiens), Q9P2K8 [S808G]; assay: Selectivity interaction (KinomeScan (DiscoverX)) EUB0000666a EIF2AK4; details: at 10 µM
[5] = target: Homeodomain-interacting protein kinase 3 (Homo sapiens, UniProt Q9H422); assay: Selectivity interaction (KinomeScan (DiscoverX)) EUB0000045b HIPK3
Sequence of Homeodomain-interacting protein kinase 3 (Q9H422 whole entry, looked up): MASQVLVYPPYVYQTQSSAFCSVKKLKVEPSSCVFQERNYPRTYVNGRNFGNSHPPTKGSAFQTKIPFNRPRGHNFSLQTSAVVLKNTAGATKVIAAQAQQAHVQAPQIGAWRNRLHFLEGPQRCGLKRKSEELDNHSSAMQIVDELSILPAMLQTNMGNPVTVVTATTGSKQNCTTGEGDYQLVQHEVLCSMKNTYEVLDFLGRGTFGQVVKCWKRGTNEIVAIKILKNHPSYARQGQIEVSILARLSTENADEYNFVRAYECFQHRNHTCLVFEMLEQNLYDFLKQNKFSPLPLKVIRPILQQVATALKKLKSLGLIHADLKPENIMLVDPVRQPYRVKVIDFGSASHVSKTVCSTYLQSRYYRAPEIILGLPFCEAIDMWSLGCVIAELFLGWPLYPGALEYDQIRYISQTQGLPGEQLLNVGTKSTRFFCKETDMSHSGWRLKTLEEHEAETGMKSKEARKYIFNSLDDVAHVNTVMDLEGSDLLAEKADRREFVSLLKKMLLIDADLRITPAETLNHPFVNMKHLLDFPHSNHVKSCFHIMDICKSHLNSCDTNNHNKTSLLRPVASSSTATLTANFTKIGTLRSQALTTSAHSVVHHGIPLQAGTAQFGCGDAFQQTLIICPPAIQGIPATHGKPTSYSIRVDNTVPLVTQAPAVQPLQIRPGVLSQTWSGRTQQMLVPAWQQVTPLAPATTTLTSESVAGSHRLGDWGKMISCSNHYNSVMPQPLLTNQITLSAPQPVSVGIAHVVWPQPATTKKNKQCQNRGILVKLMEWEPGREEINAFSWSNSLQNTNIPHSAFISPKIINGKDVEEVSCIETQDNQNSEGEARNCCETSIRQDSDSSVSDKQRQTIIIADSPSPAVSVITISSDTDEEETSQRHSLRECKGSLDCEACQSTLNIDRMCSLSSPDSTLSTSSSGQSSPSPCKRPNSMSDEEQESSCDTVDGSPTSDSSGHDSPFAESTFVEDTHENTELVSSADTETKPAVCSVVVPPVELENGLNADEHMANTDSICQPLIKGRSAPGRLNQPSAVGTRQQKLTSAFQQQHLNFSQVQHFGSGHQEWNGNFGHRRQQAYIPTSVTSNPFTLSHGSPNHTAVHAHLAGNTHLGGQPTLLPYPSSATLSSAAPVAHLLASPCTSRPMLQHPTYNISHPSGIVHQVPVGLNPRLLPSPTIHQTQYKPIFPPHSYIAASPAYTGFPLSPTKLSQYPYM

[6] = target: Proto-oncogene tyrosine-protein kinase Src (Homo sapiens, UniProt P12931); assay: Selectivity interaction (Kinase panel (literature)) EUB0001199aCl SRC; details: at 1 µM
Sequence of Proto-oncogene tyrosine-protein kinase Src (P12931 2-536 limits assumed): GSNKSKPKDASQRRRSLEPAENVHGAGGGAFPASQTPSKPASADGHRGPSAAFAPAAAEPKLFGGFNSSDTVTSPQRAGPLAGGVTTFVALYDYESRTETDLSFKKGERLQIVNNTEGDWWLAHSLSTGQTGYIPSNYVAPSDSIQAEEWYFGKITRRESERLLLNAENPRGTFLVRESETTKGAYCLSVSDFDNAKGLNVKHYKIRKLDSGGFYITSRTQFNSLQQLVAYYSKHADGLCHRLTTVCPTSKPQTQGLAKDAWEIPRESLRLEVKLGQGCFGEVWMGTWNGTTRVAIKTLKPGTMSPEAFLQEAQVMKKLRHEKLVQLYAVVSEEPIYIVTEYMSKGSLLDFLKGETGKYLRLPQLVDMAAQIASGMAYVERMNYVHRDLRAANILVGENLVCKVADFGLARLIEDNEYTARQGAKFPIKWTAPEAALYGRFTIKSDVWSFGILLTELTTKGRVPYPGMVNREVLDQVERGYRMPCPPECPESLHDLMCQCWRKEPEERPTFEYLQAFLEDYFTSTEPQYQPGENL

[7] = target: Serine/threonine-protein kinase PAK 4 (Homo sapiens, UniProt O96013); assay: Selectivity interaction (KinomeScan (DiscoverX)) EUB0000618a PAK4; details: at 10 µM
[8] = target: T1, Phosphatidylinositol 3-kinase C2 domain-containing subunit gamma (Homo sapiens) (UniProt O75747); assay: Selectivity interaction (KinomeScan (DiscoverX)) EUB0000618a PIK3C2G; details: at 10 µM
T1 sequence (whole entry): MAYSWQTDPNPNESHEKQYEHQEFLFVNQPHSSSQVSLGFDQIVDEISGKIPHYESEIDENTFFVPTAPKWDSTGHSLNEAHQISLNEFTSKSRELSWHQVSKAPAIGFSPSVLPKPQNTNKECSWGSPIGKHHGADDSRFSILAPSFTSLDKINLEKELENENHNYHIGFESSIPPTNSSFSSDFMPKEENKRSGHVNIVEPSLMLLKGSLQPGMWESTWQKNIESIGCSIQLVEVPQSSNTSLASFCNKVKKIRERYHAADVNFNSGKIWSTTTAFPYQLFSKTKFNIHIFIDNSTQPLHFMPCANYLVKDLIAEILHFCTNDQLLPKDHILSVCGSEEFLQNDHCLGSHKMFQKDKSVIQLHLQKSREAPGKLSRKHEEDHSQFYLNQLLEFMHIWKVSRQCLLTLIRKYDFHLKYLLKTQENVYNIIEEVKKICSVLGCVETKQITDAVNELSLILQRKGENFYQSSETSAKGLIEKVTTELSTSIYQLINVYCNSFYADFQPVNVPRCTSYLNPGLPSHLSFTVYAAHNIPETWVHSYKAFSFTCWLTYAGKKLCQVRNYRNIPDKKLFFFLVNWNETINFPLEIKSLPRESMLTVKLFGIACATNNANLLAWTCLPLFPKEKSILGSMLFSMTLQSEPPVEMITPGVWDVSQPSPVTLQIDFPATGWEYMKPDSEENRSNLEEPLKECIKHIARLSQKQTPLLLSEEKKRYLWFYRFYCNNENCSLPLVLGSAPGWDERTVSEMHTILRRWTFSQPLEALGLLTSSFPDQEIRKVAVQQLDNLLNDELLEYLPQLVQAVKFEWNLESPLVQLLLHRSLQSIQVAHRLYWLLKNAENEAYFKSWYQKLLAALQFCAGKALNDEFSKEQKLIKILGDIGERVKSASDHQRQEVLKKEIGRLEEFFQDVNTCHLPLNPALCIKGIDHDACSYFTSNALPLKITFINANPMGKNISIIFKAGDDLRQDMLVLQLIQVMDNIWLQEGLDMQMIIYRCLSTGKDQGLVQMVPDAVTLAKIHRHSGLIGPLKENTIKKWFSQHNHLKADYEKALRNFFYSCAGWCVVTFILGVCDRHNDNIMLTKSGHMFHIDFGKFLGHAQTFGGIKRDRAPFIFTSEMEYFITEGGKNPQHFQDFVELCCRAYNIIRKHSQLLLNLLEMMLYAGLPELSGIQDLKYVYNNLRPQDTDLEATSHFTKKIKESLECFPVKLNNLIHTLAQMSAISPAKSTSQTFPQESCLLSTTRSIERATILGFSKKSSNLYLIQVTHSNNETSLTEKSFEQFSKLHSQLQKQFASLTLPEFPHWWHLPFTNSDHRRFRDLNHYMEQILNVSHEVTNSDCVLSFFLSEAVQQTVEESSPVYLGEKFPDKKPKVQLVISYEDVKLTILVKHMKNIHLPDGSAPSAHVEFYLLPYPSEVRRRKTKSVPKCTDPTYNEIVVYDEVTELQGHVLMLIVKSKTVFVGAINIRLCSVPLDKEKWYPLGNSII

[9] = target: Serine/threonine-protein kinase MARK2 (Homo sapiens) (UniProt Q7KZI7); assay: Selectivity interaction (KinomeScan (DiscoverX)) EUB0000618a MARK2; details: at 10 µM
[10] = target: Cyclin-dependent kinase 13 (Homo sapiens, UniProt Q14004); assay: Selectivity interaction (KinomeScan (DiscoverX)) EUB0000618a CDK13; details: at 10 µM
Sequence of Cyclin-dependent kinase 13 (Q14004 whole entry, looked up): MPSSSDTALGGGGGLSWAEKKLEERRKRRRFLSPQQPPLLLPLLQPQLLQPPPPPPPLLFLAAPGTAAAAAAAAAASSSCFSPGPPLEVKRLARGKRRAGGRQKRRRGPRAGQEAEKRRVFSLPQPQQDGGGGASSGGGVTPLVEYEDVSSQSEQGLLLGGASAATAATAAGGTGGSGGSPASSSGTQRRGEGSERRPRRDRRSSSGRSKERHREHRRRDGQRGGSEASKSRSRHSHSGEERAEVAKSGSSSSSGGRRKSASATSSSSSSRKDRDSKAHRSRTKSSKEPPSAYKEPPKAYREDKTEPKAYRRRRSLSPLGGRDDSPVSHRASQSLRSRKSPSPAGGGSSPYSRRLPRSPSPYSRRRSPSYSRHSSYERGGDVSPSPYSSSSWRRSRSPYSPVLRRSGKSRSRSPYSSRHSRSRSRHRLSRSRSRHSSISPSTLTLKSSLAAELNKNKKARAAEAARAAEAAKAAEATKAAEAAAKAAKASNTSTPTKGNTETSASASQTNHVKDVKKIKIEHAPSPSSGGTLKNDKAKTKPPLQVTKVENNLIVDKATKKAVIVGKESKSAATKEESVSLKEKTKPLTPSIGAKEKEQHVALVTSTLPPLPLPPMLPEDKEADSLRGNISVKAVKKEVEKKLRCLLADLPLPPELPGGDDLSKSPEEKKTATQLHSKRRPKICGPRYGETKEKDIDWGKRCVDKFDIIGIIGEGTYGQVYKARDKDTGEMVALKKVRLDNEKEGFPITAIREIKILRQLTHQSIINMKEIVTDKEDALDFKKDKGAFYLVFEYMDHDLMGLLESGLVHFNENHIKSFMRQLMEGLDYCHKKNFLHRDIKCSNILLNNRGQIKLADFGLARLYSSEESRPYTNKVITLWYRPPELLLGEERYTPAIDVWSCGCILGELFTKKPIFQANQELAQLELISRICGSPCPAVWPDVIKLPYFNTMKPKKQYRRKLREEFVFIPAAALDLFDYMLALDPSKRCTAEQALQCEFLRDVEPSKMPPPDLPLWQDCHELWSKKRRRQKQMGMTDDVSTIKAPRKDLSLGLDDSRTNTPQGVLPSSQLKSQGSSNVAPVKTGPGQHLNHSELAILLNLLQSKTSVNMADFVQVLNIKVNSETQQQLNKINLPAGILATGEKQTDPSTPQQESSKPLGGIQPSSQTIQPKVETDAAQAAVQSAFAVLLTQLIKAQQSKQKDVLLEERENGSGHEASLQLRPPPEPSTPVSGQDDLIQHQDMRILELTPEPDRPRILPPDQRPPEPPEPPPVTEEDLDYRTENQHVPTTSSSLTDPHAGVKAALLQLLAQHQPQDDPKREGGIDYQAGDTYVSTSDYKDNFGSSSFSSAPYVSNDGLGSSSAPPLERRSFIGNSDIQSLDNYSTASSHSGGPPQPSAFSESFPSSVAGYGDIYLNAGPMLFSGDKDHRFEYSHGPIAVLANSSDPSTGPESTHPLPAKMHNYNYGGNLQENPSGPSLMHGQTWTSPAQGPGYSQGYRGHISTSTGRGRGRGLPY

Sequence of Phosphatidylinositol 4-phosphate 5-kinase type-1 gamma (Homo sapiens) (O60331 whole entry): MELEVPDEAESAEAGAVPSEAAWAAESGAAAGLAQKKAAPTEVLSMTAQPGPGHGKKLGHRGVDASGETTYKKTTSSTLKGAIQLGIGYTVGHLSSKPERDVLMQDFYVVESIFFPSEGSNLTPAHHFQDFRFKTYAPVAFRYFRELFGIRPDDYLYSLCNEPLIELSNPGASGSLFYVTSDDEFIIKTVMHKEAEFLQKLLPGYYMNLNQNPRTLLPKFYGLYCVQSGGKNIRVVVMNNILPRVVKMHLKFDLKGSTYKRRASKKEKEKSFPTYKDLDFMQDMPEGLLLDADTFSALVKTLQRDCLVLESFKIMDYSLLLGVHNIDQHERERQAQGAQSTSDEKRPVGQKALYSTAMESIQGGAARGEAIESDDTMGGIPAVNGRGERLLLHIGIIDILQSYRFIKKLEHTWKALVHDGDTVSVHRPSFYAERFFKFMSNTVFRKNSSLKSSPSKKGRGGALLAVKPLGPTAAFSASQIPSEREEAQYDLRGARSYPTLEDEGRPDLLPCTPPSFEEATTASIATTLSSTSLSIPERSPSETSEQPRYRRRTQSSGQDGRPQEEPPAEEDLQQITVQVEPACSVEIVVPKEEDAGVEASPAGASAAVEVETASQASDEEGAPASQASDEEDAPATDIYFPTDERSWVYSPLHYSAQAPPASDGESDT
Sequence of Casein kinase I isoform delta (P48730 whole entry, looked up, canonical isoform): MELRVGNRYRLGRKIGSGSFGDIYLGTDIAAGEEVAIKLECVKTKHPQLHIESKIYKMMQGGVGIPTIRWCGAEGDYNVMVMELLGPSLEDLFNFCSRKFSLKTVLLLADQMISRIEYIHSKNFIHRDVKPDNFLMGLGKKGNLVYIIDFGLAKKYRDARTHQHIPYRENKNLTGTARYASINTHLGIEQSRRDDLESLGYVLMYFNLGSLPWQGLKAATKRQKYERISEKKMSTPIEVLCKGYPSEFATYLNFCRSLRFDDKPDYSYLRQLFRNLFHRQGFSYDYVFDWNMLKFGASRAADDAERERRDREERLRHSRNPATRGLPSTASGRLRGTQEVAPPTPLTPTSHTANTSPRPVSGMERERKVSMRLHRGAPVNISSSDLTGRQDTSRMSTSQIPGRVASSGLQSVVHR

SMILES: CCN(CC)CCCCNc1ncc2cc(-c3cc(OC)cc(OC)c3)c(NC(=O)NC(C)(C)C)nc2n1
- % of control [1]: 100%

SMILES: CN(C)CCOc1ccc(-c2nc(-c3ccncc3)c(-c3ccc4c(c3)CC/C4=N\O)[nH]2)cc1
- % of control [2]: 52%

SMILES: O=C(NOC[C@H](O)CO)c1ccc(F)c(F)c1Nc1ccc(I)cc1F
- % of control [3]: 87%
- % of control [4]: 84%

SMILES: C=CC(=O)Nc1cc(-n2c(=O)ccc3cnc4ccc(-c5ccc(NS(C)(=O)=O)cc5)cc4c32)ccc1C
- % of control ([5]; at 1 µM): 100%
- % of control ([5]; at 10 µM): 100%

SMILES: CN1Cc2nccc(-c3cn(C)nc3-c3ccc(F)cc3)c2C1=O
- % of inhibition [6]: 6%

SMILES: O[C@H]1CC[C@H](Nc2ncc3nc(Nc4c(F)cc(F)cc4F)n([C@H]4CCOC4)c3n2)CC1
- % of control [7]: 100%
- % of control [8]: 93%
- % of control [9]: 100%
- % of control [10]: 90%
